Reference: patent US12698507B2, “Methods and compositions for conferring and/or enhancing herbicide tolerance using protoporphyrinogen IX oxidase of various cyanobacteria or variant thereof” (FarmHannong Co., Ltd., priority 2019, dated 2026)
Where two headings read alike, the source gives them in different places.

T1: Thermosynechococcus elongatus PKUAC-SCTE542 protoporphyrinogen IX oxidase CyPPO19, wild type, SEQ ID NO: 1 (MBP fusion) (Thermosynechococcus sichuanensis, UniProt A0A7D6JSC1)
T1 sequence (A0A7D6JSC1 1-467): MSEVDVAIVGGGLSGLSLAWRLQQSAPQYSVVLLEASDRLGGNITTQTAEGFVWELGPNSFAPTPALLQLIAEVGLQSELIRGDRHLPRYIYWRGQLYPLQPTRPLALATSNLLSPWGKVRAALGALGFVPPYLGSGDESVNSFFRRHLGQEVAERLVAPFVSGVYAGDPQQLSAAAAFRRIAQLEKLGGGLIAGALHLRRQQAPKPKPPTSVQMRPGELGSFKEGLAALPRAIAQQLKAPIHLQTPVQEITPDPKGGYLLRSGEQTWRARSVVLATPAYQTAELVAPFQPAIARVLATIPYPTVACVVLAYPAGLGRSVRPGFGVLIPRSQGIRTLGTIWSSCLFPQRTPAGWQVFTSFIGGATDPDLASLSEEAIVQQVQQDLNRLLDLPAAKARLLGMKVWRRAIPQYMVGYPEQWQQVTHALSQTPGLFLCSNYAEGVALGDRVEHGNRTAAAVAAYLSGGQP


What was measured:
[1] = target: T1, Thermosynechococcus elongatus PKUAC-SCTE542 protoporphyrinogen IX oxidase CyPPO19, wild type, SEQ ID NO: 1 (MBP fusion); experiment: PPO enzyme inhibition assay (IC50 for herbicides), CyPPO19 wild type fused to MBP; type: biochemical
[2] = system: wild type A. thaliana (Col-0); experiment: Herbicide injury of wild type A. thaliana (Col-0) after spraying; type: in vivo, Arabidopsis thaliana; conditions: 1 μM tiafenacil and 0.05% Silwet L-77, within 7 days
[3] = system: transgenic A. thaliana (T1) transformed with CyPPO19, CyPPO18 or variant genes; experiment: Herbicide tolerance of transgenic A. thaliana (T1 plants); type: in vivo, Arabidopsis thaliana; conditions: 1 μM tiafenacil and 0.05% Silwet L-77
Excerpt: Transgenic plants were screened with glufosinate tolerance which was conferred by Bar gene expression in the binary vector. […] They were, then, transplanted into soil and grown to obtain T1 plants.

[4] = target: Thermosynechococcus elongatus PKUAC-SCTE542 protoporphyrinogen IX oxidase CyPPO19 (SEQ ID NO: 1) variant R89A (MBP fusion) (Thermosynechococcus sichuanensis, UniProt A0A7D6JSC1, R89A); experiment: biochemical
Thermosynechococcus elongatus PKUAC-SCTE542 protoporphyrinogen IX oxidase CyPPO19 (SEQ ID NO: 1) variant R89A (MBP fusion), sequence (A0A7D6JSC1 entry or part of it R89A): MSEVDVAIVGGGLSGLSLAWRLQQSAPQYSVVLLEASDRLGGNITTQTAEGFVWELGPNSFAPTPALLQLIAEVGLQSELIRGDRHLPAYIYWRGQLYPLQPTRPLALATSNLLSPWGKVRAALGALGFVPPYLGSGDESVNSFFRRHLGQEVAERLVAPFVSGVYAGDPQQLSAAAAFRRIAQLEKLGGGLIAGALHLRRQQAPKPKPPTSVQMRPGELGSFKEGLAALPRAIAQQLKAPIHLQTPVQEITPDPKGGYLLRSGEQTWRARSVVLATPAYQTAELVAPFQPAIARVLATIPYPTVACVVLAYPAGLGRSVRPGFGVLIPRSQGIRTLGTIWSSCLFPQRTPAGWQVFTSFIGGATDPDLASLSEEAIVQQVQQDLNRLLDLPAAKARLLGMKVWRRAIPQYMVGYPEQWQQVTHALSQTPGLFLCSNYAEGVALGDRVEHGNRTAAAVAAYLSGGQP

[5] = target: Thermosynechococcus elongatus PKUAC-SCTE542 protoporphyrinogen IX oxidase CyPPO19 (SEQ ID NO: 1) variant V165C (MBP fusion) (Thermosynechococcus sichuanensis, UniProt A0A7D6JSC1, V165C); experiment: PPO enzyme inhibition assay (IC50 for herbicides), CyPPO19 V165C fused to MBP; type: biochemical
Thermosynechococcus elongatus PKUAC-SCTE542 protoporphyrinogen IX oxidase CyPPO19 (SEQ ID NO: 1) variant V165C (MBP fusion), sequence (A0A7D6JSC1 entry or part of it V165C): as the sequence (A0A7D6JSC1 entry or part of it R89A) above, with A89R, V165C counted along it

[6] = target: Thermosynechococcus elongatus PKUAC-SCTE542 protoporphyrinogen IX oxidase CyPPO19 (SEQ ID NO: 1) variant V165S (MBP fusion) (Thermosynechococcus sichuanensis, UniProt A0A7D6JSC1, V165S); experiment: biochemical; conditions: 50 μM protoporphyrinogen IX, pH 7.5, room temperature, 30 min, 10,000 means equivalent to or higher, read-out: IC50
Thermosynechococcus elongatus PKUAC-SCTE542 protoporphyrinogen IX oxidase CyPPO19 (SEQ ID NO: 1) variant V165S (MBP fusion), sequence (A0A7D6JSC1 entry or part of it V165S): as the sequence (A0A7D6JSC1 entry or part of it R89A) above, with A89R, V165S counted along it

[7] = target: Thermosynechococcus elongatus PKUAC-SCTE542 protoporphyrinogen IX oxidase CyPPO19 (SEQ ID NO: 1) variant A167C (MBP fusion) (Thermosynechococcus sichuanensis, UniProt A0A7D6JSC1, A167C); experiment: biochemical
Thermosynechococcus elongatus PKUAC-SCTE542 protoporphyrinogen IX oxidase CyPPO19 (SEQ ID NO: 1) variant A167C (MBP fusion), sequence (A0A7D6JSC1 entry or part of it A167C): as the sequence (A0A7D6JSC1 entry or part of it R89A) above, with A89R, A167C counted along it

[8] = target: Thermosynechococcus elongatus PKUAC-SCTE542 protoporphyrinogen IX oxidase CyPPO19 (SEQ ID NO: 1) variant A167I (MBP fusion) (Thermosynechococcus sichuanensis, UniProt A0A7D6JSC1, A167I); experiment: biochemical; conditions: 50 μM protoporphyrinogen IX, pH 7.5, room temperature, 30 min, 10,000 means equivalent to or higher, read-out: IC50
Thermosynechococcus elongatus PKUAC-SCTE542 protoporphyrinogen IX oxidase CyPPO19 (SEQ ID NO: 1) variant A167I (MBP fusion), sequence (A0A7D6JSC1 entry or part of it A167I): as the sequence (A0A7D6JSC1 entry or part of it R89A) above, with A89R, A167I counted along it

[9] = target: Thermosynechococcus elongatus PKUAC-SCTE542 protoporphyrinogen IX oxidase CyPPO19 (SEQ ID NO: 1) variant A167L (MBP fusion) (Thermosynechococcus sichuanensis, UniProt A0A7D6JSC1, A167L); experiment: biochemical; conditions: 50 μM protoporphyrinogen IX, pH 7.5, room temperature, 30 min, 10,000 means equivalent to or higher, read-out: IC50
Thermosynechococcus elongatus PKUAC-SCTE542 protoporphyrinogen IX oxidase CyPPO19 (SEQ ID NO: 1) variant A167L (MBP fusion), sequence (A0A7D6JSC1 entry or part of it A167L): as the sequence (A0A7D6JSC1 entry or part of it R89A) above, with A89R, A167L counted along it

[10] = target: Thermosynechococcus elongatus PKUAC-SCTE542 protoporphyrinogen IX oxidase CyPPO19 (SEQ ID NO: 1) variant V305M (MBP fusion) (Thermosynechococcus sichuanensis, UniProt A0A7D6JSC1, V305M); experiment: PPO enzyme inhibition assay (IC50 for herbicides), CyPPO19 V305M fused to MBP; type: biochemical
Thermosynechococcus elongatus PKUAC-SCTE542 protoporphyrinogen IX oxidase CyPPO19 (SEQ ID NO: 1) variant V305M (MBP fusion), sequence (A0A7D6JSC1 entry or part of it V305M): as the sequence (A0A7D6JSC1 entry or part of it R89A) above, with A89R, V305M counted along it

[11] = target: Thermosynechococcus elongatus PKUAC-SCTE542 protoporphyrinogen IX oxidase CyPPO19 (SEQ ID NO: 1) variant V305L (MBP fusion) (Thermosynechococcus sichuanensis, UniProt A0A7D6JSC1, V305L); experiment: PPO enzyme inhibition assay (IC50 for herbicides), CyPPO19 V305L fused to MBP; type: biochemical
Thermosynechococcus elongatus PKUAC-SCTE542 protoporphyrinogen IX oxidase CyPPO19 (SEQ ID NO: 1) variant V305L (MBP fusion), sequence (A0A7D6JSC1 entry or part of it V305L): as the sequence (A0A7D6JSC1 entry or part of it R89A) above, with A89R, V305L counted along it

[12] = system: A. thaliana; experiment: PPO-inhibiting herbicide tolerance test of transgenic A. thaliana (herbicide spray, injury index); type: in vivo, Arabidopsis thaliana; conditions: transgenic A. thaliana (T2), tiafenacil or flumioxazin spray
[13] = system: PPO-deficient BT3 E. coli (ΔPPO); experiment: PPO-inhibiting herbicide tolerance test of PPO variants in E. coli (growth on herbicide-containing LB agar); type: cell-based; conditions: CyPPO18 variants in BT3 (ΔPPO) E. coli; LB agar with 0 to 2,000 μM herbicide, 37° C., dark, 16-20 hours
Summary of the method: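 PPO-deficient BT3 E. coli expressing each variant from pET303 were diluted to OD600=0.5, then 10-fold serially, and spotted on LB-ampicillin agar with 0 to 2,000 μM herbicide. After 16-20 h at 37° C. in the dark, growth relative to wild type was scored from '−' (equivalent) to '+' per 10-fold resistance, max '+++++'.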

| Molecule | IC50 [4] [nM] | IC50 [5] [nM] | IC50 [6] [nM] | IC50 [7] [nM] | IC50 [8] [nM] | IC50 [9] [nM] | IC50 [10] [nM] | IC50 [11] [nM] | herbicide tolerance compared to non-transgenic plants [12] | further results |
| --- | --- | --- | --- | --- | --- | --- | --- | --- | --- | --- |
| COC(=O)CCNC(=O)C(C)Sc1cc(-n2c(=O)cc(C(F)(F)F)n(C)c2=O)c(F)cc1Cl (centres unmarked) [Tiafenacil] | 113 | 186 | 269 | 342 | 248 | 597 | 392 | 1140 | – | IC50 ([1]; CyPPO19 WT, 50 μM protoporphyrinogen IX, pH 7.5, room temperature, 30 min, read-out: IC50): 67 nM; survival after herbicide treatment [2]: completely died within 7 days; survival after herbicide treatment [3]: survived |
| CS(=O)(=O)NC(=O)c1cc(Oc2ccc(C(F)(F)F)cc2Cl)ccc1[N+](=O)[O-] [Fomesafen] | 2360 | 330 | 348 | 843 | 899 | 1760 | 257 | 466 | – | IC50 [1]: 242 nM |
| CyPPO18 WT: PPO protein derived from Thermosynechococcus vulcanus NIES-2134 strain, SEQ ID NO: 3 (protein, Synthetic_PPO of Thermosynechococcus vulcanus NIES-2134 (BAY51976)) MIEVDVAIVGGGLSGLSVAWRLQRSAPHYSGVLLEASDRLGGNITTQAAEGFVWELGPNSFAPTPALLQLIAEVGLHSELIRGDRHLPRYIYWRGELYPLEPTRPLALATSNLLSPWGKVRAALGALGFVPPYLGSGDESVDSFFRRHLGQEVAERLVAPFVSGVYAGDPQQLSAAAAFRRIAQLEKLGGSLIAGALRLRRQQPPQPKPPAQVQMRPGELGSFREGLAALPRAIAQQLKAPLHLQTPVEAITPEPKGGYLLRSGEQTWHARSVVLATPAYQSAELVAPFQPAIARALATIPYPTVACVVLAYPAGLGRSVRPGFGVLVPRGQGIRTLGTIWSSCLFPQRTPAGWQVFTSFIGGATDPDLASLREEAIVEQVQQDLTRLLDLPAAKARLLGMKVWRRAIPQYIVGYPQQWQQLTHALTQTPGLFLCSNYAEGVALGDRVEHGNRTAAAVAAYLAGGQS | – | – | – | – | – | – | – | – | increased herbicide tolerance | – |
| CyPPO18 R89A + V165C + A167L + V305M + F360I: variant of CyPPO18 PPO protein (SEQ ID NO: 3) (protein, Synthetic_PPO of Thermosynechococcus vulcanus NIES-2134 (BAY51976)) MIEVDVAIVGGGLSGLSVAWRLQRSAPHYSGVLLEASDRLGGNITTQAAEGFVWELGPNSFAPTPALLQLIAEVGLHSELIRGDRHLPAYIYWRGELYPLEPTRPLALATSNLLSPWGKVRAALGALGFVPPYLGSGDESVDSFFRRHLGQEVAERLVAPFVSGCYLGDPQQLSAAAAFRRIAQLEKLGGSLIAGALRLRRQQPPQPKPPAQVQMRPGELGSFREGLAALPRAIAQQLKAPLHLQTPVEAITPEPKGGYLLRSGEQTWHARSVVLATPAYQSAELVAPFQPAIARALATIPYPTMACVVLAYPAGLGRSVRPGFGVLVPRGQGIRTLGTIWSSCLFPQRTPAGWQVFTSIIGGATDPDLASLREEAIVEQVQQDLTRLLDLPAAKARLLGMKVWRRAIPQYIVGYPQQWQQLTHALTQTPGLFLCSNYAEGVALGDRVEHGNRTAAAVAAYLAGGQS | – | – | – | – | – | – | – | – | – | tolerance level relative to wild type, Carfentrazone [13]: ++ (‘+’ per each 10-fold resistance); tolerance level relative to wild type, Flumioxazin [13]: +++++ (until ‘+++++’ as maximal resistance); tolerance level relative to wild type, Fomesafen [13]: +++++ (until ‘+++++’ as maximal resistance); tolerance level relative to wild type, Oxyfluorfen [13]: ++ (‘+’ per each 10-fold resistance); tolerance level relative to wild type, Saflufenacil [13]: +++++ (until ‘+++++’ as maximal resistance); tolerance level relative to wild type, Sulfentrazone [13]: +++++ (until ‘+++++’ as maximal resistance); tolerance level relative to wild type, Tiafenacil [13]: +++++ (until ‘+++++’ as maximal resistance) |
| CyPPO19 WT: PPO protein derived from Thermosynechococcus elongatus PKUAC-SCTE542 strain, SEQ ID NO: 1 (protein, Synthetic_PPO of Thermosynechococcus elongatus PKUAC-SCTE542 (comprising GenBank No. CP032152.1)) MSEVDVAIVGGGLSGLSLAWRLQQSAPQYSVVLLEASDRLGGNITTQTAEGFVWELGPNSFAPTPALLQLIAEVGLQSELIRGDRHLPRYIYWRGQLYPLQPTRPLALATSNLLSPWGKVRAALGALGFVPPYLGSGDESVNSFFRRHLGQEVAERLVAPFVSGVYAGDPQQLSAAAAFRRIAQLEKLGGGLIAGALHLRRQQAPKPKPPTSVQMRPGELGSFKEGLAALPRAIAQQLKAPIHLQTPVQEITPDPKGGYLLRSGEQTWRARSVVLATPAYQTAELVAPFQPAIARVLATIPYPTVACVVLAYPAGLGRSVRPGFGVLIPRSQGIRTLGTIWSSCLFPQRTPAGWQVFTSFIGGATDPDLASLSEEAIVQQVQQDLNRLLDLPAAKARLLGMKVWRRAIPQYMVGYPEQWQQVTHALSQTPGLFLCSNYAEGVALGDRVEHGNRTAAAVAAYLSGGQP | – | – | – | – | – | – | – | – | increased herbicide tolerance | – |
